# Data: publication PMC9238271, “The quorum sensing peptide EntF* promotes colorectal cancer metastasis in mice: a new factor in the host-microbiome interaction” (BMC Biology, 2022)
# Test system: E-cadherin expression in HT-29 cells
# Test: Western blot of E-cadherin expression, HT-29 cells
# Assay type: cell-based
# Method: HCT-8, HT-29, and HT-116 cells were grown in DMEM medium supplied with 10% fetal bovine serum (FBS) and 1% penicillin-streptomycin. Caco-2 cells were grown in DMEM medium supplied with 10% FBS, 1% non-essential amino acid NEAA), and 1% penicillin-streptomycin. Cells were cultured at 37 °C and 5% CO2. As cells reached confluency, they were detached using 0.25% Trypsin-EDTA.
# For Western blot analyses, HCT-8 (n = 15), HCT-116 (n = 12), Caco-2 (n = 6), and HT-29 (n = 12) cells were seeded in 6-well plates at a density of 1 × 10^6 cells/well. Twenty-four hours after seeding, all cell lines were treated with 1 μM EntF* or a placebo solution. HCT-8 cells were also tested for responsiveness to 1 μM EntF* synthetic alanine-derived analogs. For antagonist activity analysis, HCT-8 cells were treated with 1 μM Nef-M1 or 1 μM EntF*A1 alone or in combination with 500 nM EntF*. After 24 h, cells were detached from the surface and lysed in RIPA buffer (Thermo Scientific). Protein concentration was determined using the modified Lowry protein assay kit (Thermo Scientific), according to the manufacturer’s instructions. Protein samples were diluted to the same concentration (4 μg/μL) with water and diluted again 1:1 using 2x Laemmli buffer. After that, samples were boiled for 5 min at 95 °C to denature proteins and centrifuged for 5 min at 16,000g; supernatants were used for Western blot analyses. Equal amounts of total protein (20 μg/lane) were separated by SDS-PAGE on an Any kD^TM gel (Bio-Rad ) and then transferred to a PVDF membrane. Before incubation with antibodies, non-specific binding sites on the membranes were blocked using 5% skimmed milk solution (1 h). TBS buffer with 0.05% Tween 20 was used for all washing steps. Membranes were incubated overnight at 4 °C with an anti-E-cadherin primary antibody (1/1000 dilution). An HRP-conjugated anti-rabbit antibody (1/2000 dilution, 1 h incubation) was used for chemiluminescent detection. Membranes were incubated with the detection substrate for 5 min and signal detection was performed using the ChemiDoc EZ imager and Image Lab software (Bio-Rad). […]
compound,measurement,setting,value
"CC(C)C[C@@H]1NC(=O)[C@H](CO)NC(=O)[C@H](Cc2ccccc2)NC(=O)[C@H](C(C)C)NC(=O)[C@@H](NC(=O)[C@H](CCC(=O)O)NC(=O)[C@@H](NC(=O)[C@H](CC(C)C)NC(=O)[C@H](CC(N)=O)NC(=O)[C@@H](N)CO)C(C)C)CSSC[C@@H](C(=O)N[C@@H](CC(N)=O)C(=O)O)NC(=O)[C@H](CCCCN)NC(=O)[C@H](CCCCN)NC(=O)[C@H](Cc2ccccc2)NC1=O (single isomer, unassigned) [EntF*]",effect on E-cadherin expression in HT-29 cells,"1 μM EntF* or CXCL12, 24 h, n = 12",statistically significant reduction
same,"Relative E-cadherin expression, average","HT-29 cells, average of n = 12",73.7
